Measurements reported in ChEMBL document CHEMBL5136971, “Virtual screening and in vitro validation identifies the first reported inhibitors of Salmonella enterica HPPK” (RSC Med Chem, 2021).
Each block holds one compound with its values, some of them ahead of it. Active and inactive are the calls of the source. The calls are words filed in the database; no cut-off is given here.

Key:
[1] = tested on: Salmonella enterica; assay: Inhibition of Salmonella enterica HPPK at 50 uM incubated for 20 mins in presence of ATP by Kinase Glo luminescence assay
[2] = tested on: Escherichia coli; assay: Inhibition of Escherichia coli HPPK at 50 uM incubated for 20 mins in presence of ATP by Kinase Glo luminescence assay
[3] = Inhibition of Salmonella enterica HPPK
[4] = Binding affinity to Salmonella enterica HPPK
[5] = Inhibition of Salmonella enterica HPPK incubated for 20 mins in presence of ATP by Kinase Glo luminescence assay
[6] = Inhibition of Escherichia coli HPPK
[7] = Binding affinity to Escherichia coli HPPK

SMILES: CCOC(=O)N1CCN(S(=O)(=O)c2ccc3c4c(cccc24)C(=O)N3)CC1
inhibition activity call (active/inactive) [1]: Active

SMILES: O=C1CC(C(=O)Nc2cccc3ccccc23)C2(CCCCC2)O1 (stereo not given)
inhibition [2]: Active
inhibition activity call (active/inactive) [1]: Active

SMILES: Nc1nc2[nH]c(SCc3ccccc3F)nc2c(=O)[nH]1
IC50 [3]: 25000 nM
Kd [4]: 450 nM

SMILES: CC1(C)Nc2nc(N)[nH]c(=O)c2N=C1C(=O)NCCN1CCC(SC[C@H]2O[C@@H](n3cnc4c(N)ncnc43)[C@H](O)[C@@H]2O)CC1
IC50 [6]: 3200 nM
Kd [7]: 2500 nM

SMILES: O=C(c1ccccc1F)N1CCN(c2ccc([N+](=O)[O-])c3ncccc23)CC1
inhibition activity call (active/inactive) [1]: Active

SMILES: CC1(C)Nc2nc(N)[nH]c(=O)c2N=C1C(=O)NCCN1CC[C@@H](SC[C@H]2O[C@@H](n3cnc4c(N)ncnc43)[C@H](O)[C@@H]2O)C[C@@H]1C(=O)O
IC50 [6]: 380 nM
Kd [7]: 190 nM

Other lines, results leading:

inhibition activity call (active/inactive) [1]: Active
SMILES: Cc1cccc(NC(=O)CN2C(=O)N/C(=C\c3cccn3-c3ccccc3)C2=O)c1

IC50 [5]: 10400 nM
inhibition activity call (active/inactive) [1]: Active
SMILES: O=C(NCc1n[nH]c(=O)c2ccccc12)c1cccc(Cl)c1

inhibition [2]: Active
inhibition activity call (active/inactive) [1]: Active
SMILES: Cc1ccc2c(C)c(C(=O)NCc3ccc(S(N)(=O)=O)cc3)oc2c1
